Source: ChEMBL document CHEMBL4428029, “Notch Antagonists: Potential Modulators of Cancer and Inflammatory Diseases” (J Med Chem, 2016)
Residues, ends and D or L forms follow the SMILES beside them. *: point of attachment. Decanoyl = CCCCCCCCCC(=O)*; CH2Cl = ClC*

What was measured:
Gamma-secretase [1] = assay: Inhibition of gamma secretase mediated amyloid beta level reduction in HEK293 cells expressing APP after 72 hrs by chemiluminescence assay; type: cell-based, Homo sapiens
Gamma-secretase [2] = assay: Inhibition of gamma secretase (unknown origin) mediated Notch signaling by cell based luciferase reporter gene assay
Gamma-secretase [3] = assay: Inhibition of gamma secretase in human primary neuronal cells assessed as reduction in amyloid beta 40
Gamma-secretase [4] = assay: Inhibition of gamma secretase (unknown origin) assessed as reduction in amyloid beta levels by HTRF assay; type: protein-complex assay, Homo sapiens
Gamma-secretase [5] = assay: Inhibition of full-length human gamma secretase expressed in SH-SY5Y spbetaA4CTF cells assessed as reduction in amyloid beta levels after 90 mins by HTRF assay; type: cell-based
Gamma-secretase [6] = assay: Inhibition of gamma secretase mediated Notch delta E activation in human HeLa cells expressing EGFP after 16 hrs by immunofluorescence analysis; type: cell-based
Gamma-secretase [7] = assay: Inhibition of gamma secretase mediated Notch signaling in human SupT1 cells after 16 hrs by chemiluminescence assay; type: cell-based
Gamma-secretase [8] = assay: Inhibition of gamma secretase in human SupT1 cells assessed as reduction in amyloid beta 40 after 16 hrs by chemiluminescence assay; type: cell-based
Gamma-secretase [9] = assay: Inhibition of gamma secretase (unknown origin) mediated Notch activation; type: protein-complex assay, Homo sapiens
Gamma-secretase [10] = assay: Inhibition of gamma secretase (unknown origin) mediated Notch signaling; type: protein-complex assay, Homo sapiens
[11] = molecular target: Disintegrin and metalloproteinase domain-containing protein 17 (Homo sapiens, UniProt P78536); assay: Inhibition of ADAM17 (unknown origin) assessed as blockage of TNF-alpha shedding
Gamma-secretase [12] = assay: Inhibition of gamma secretase (unknown origin); type: protein-complex assay, Homo sapiens
[13] = molecular target: T1, Neuroendocrine convertase 1 (Homo sapiens, UniProt P29120); assay: Inhibition of recombinant C-terminal truncated human SPC3 expressed in drosophila Schneider 2 cells after 1 hr by spectrofluorometry; type: cell-based
T1 sequence (P29120 whole entry): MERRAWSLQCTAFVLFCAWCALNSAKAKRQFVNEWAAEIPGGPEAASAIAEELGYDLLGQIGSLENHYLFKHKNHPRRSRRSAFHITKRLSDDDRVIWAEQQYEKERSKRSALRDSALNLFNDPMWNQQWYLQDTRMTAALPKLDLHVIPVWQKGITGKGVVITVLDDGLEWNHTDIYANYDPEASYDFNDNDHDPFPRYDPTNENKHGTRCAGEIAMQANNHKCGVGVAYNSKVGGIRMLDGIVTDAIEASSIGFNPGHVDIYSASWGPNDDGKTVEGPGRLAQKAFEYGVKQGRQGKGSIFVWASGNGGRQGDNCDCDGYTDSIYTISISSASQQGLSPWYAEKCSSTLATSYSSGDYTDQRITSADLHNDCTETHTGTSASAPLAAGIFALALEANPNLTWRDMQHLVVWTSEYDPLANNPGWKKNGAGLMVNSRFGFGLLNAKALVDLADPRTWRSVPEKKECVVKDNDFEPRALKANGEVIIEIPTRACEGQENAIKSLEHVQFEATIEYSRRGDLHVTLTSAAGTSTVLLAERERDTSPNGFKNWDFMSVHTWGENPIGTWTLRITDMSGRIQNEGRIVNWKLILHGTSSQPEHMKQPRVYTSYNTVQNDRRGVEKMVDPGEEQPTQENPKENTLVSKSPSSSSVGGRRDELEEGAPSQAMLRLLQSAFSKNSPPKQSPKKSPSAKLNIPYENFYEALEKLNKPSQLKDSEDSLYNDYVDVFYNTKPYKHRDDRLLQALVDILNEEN

[14] = molecular target: T2, Neuroendocrine convertase 2 (Homo sapiens, UniProt P16519); assay: Inhibition of recombinant C-terminal truncated human SPC2 expressed in drosophila Schneider 2 cells after 1 hr by spectrofluorometry; type: cell-based
T2 sequence (P16519 whole entry): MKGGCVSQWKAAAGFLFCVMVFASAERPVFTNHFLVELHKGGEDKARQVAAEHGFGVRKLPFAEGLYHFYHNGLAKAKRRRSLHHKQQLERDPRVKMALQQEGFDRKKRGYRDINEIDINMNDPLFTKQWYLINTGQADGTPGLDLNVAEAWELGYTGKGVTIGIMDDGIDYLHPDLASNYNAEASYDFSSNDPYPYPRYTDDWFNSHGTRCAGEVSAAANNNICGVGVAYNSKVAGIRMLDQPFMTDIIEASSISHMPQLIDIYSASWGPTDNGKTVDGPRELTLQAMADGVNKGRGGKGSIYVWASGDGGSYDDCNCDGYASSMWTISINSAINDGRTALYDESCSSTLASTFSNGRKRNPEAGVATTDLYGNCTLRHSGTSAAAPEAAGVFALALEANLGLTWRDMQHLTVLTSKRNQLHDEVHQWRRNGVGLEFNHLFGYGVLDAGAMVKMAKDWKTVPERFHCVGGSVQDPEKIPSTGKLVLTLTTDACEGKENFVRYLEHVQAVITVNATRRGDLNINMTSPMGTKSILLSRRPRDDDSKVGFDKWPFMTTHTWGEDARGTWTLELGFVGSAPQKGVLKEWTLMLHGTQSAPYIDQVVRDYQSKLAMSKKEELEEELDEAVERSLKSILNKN

Gamma-secretase [15] = assay: Inhibition of gamma secretase (unknown origin) mediated APP cleavage in CHO cells expressing APP Swedish KM/NL mutant assessed as reduction in amyloid beta 40 after 24 hrs by sandwich ELISA
Gamma-secretase [16] = assay: Inhibition of gamma secretase (unknown origin) mediated Notch M1726V mutant activation in CHO K1 cells after 48 hrs by chemiluminescence assay
Gamma-secretase [17] = assay: Inhibition of gamma secretase in human MCF7 cells assessed as reduction in amyloid beta 40 after 3 days by Western blot analysis
Gamma-secretase [18] = assay: Inhibition of gamma secretase mediated Notch1 signaling in HEK293 cells expressing truncated human Notch1 by luciferase reporter gene assay; type: cell-based
Gamma-secretase [19] = assay: Inhibition of gamma secretase in HEK293 cells expressing APP695 assessed as reduction in amyloid beta (1 to 40 residues) by ELISA; type: cell-based, Homo sapiens
A549 = assay: Antitumor activity against human A549 cells xenografted in nude mouse assessed as tumor growth inhibition at 3 to 60 mg/kg qd or bid administered via oral gavage for 7 to 21 days relative to vehicle treated control; type: functional
Gamma-secretase [20] = assay: Modulation of gamma secretase (unknown origin) assessed as reduction in amyloid beta levels; type: protein-complex assay, Homo sapiens

Chain of Disintegrin and metalloproteinase domain-containing protein 17 (P78536 whole entry, the tested form may be a part): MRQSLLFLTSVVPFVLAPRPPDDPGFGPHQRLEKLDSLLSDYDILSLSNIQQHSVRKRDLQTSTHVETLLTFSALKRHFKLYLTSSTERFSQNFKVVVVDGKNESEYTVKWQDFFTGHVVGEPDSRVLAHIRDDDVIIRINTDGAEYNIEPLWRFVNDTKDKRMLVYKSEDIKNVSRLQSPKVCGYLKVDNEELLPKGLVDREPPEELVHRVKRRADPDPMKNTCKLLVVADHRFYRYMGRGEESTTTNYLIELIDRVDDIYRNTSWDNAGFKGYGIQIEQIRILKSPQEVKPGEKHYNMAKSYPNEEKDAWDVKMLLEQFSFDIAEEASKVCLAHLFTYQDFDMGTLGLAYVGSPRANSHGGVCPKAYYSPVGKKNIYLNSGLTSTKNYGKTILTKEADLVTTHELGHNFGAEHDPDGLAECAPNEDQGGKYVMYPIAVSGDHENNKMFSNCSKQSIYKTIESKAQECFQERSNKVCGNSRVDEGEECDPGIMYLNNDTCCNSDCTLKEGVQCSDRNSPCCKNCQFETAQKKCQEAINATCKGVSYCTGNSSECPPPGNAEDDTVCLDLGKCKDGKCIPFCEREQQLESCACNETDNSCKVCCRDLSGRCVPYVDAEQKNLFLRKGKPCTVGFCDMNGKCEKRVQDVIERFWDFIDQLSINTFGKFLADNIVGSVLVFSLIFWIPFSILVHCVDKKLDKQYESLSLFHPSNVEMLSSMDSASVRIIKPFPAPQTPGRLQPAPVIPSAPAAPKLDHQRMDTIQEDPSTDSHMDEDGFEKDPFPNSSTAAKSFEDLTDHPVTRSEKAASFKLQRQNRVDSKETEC

## COc1oc(=O)c2cc(N)ccc2c1Cl
Gamma-secretase [1]
  IC50: 30000 nM

## C[C@H](NC(=O)Cc1cc(F)cc(F)c1)C(=O)N[C@H](C(=O)OC(C)(C)C)c1ccccc1
Gamma-secretase [2]
  IC50: 500 nM
Gamma-secretase [3]
  IC50: 115 to 200 nM

## CC(C)C[C@H](NC(=O)[C@H](Cc1ccccc1)C[C@@H](O)[C@H](Cc1ccccc1)NC(=O)OC(C)(C)C)C(=O)N[C@@H](Cc1ccccc1)C(N)=O
Gamma-secretase [4]
  IC50: 17 nM
Gamma-secretase [5]
  IC50: 115 to 200 nM

## CC1=C(C(=O)OC2CCCCC2)C(c2ccc([N+](=O)[O-])cc2)C2=C(CC(C)(C)CC2=O)N1 (configuration not stated)
Gamma-secretase [6]
  IC50: 2300 nM

## C[C@H](NC(=O)Cc1cc(F)cc(F)c1)C(=O)N[C@@H]1C(=O)N(C)c2ccccc2-c2ccccc21
Gamma-secretase [7]
  IC50: 2.9 nM
Gamma-secretase [8]
  IC50: 2.6 nM

## CC(C)[C@H](O)C(=O)N[C@@H](C)C(=O)N[C@@H]1C(=O)N(C)c2ccccc2-c2ccccc21
Gamma-secretase [9]
  IC50: 0.27 nM

## C[C@H](NC(=O)CCC(F)(F)F)C(=O)N[C@H]1C(=O)N(CCO)c2ncccc2-c2ccccc21
Gamma-secretase [10]
  IC50: 0.41 nM

## CC(C)CC(CC(=O)NO)C(=O)N[C@@H](Cc1ccc2ccccc2c1)C(=O)N[C@@H](C)C(=O)NCCN (some centres not stated)
[11]
  IC50: 8100 nM

## CC(C)[C@H](O)C(=O)N[C@@H](C)C(=O)N[C@@H]1C(=O)N(C)CCc2ccccc21
Gamma-secretase [12]
  IC50: 10.9 to 12.1 nM
Gamma-secretase [10]
  IC50: 14.1 nM

## CCCCCCCCCC(=O)N[C@@H](CCCNC(=N)N)C(=O)N[C@H](C(=O)N[C@@H](CCCCN)C(=O)N[C@@H](CCCNC(=N)N)C(=O)CCl)C(C)C (Decanoyl-RVKR-CH2Cl)
[13]
  Ki: 2 nM
[14]
  Ki: 0.36 nM

## O=S(=O)(N[C@H](CO)C(C(F)(F)F)C(F)(F)F)c1ccc(Cl)s1 [BEGACESTAT]
Gamma-secretase [15]
  IC50: 14.8 nM
Gamma-secretase [16]
  IC50: 208 nM

## O=C(O)CC[C@H]1CC[C@@](c2cc(F)ccc2F)(S(=O)(=O)c2ccc(Cl)cc2)CC1 [MK-0752]
Gamma-secretase [17]
  IC50: 5 nM

## CC(C)(C(=O)NCC(F)(F)C(F)(F)F)C(=O)N[C@@H]1C(=O)Nc2ccccc2-c2ccccc21 [RG-4733]
Gamma-secretase [18]
  EC50: 5 nM
Gamma-secretase [19]
  EC50: 14 nM
A549
  TGI: 66 - 91%

## C[C@@H](C(=O)O)c1ccc(-c2ccccc2)c(F)c1 [TARENFLURBIL]
Gamma-secretase [20]
  IC50: 100000 nM
